What all share (assay type): cell-based
In assay [1] the test system is Botrytis cinerea.
Assay [2] relates to Monilinia fructicola. The assay is described as follows: microbe, parasite or virus in culture. The note with it: read-out: Fungicidal activity IC50, M. fructicola.
Assay [3] has as its system Stagonospora nodorum. The assay is described as follows: microbe, parasite or virus in culture.
Assay [4] concerns Septoria tritici. The assay is described as follows: microbe, parasite or virus in culture. The note with it: for IC50: Zymoseptoria tritici, read-out: Fungicidal activity IC50, S. tritici.
The test system of assay [5] is Phytophthora infestans. Put plainly: microbe, parasite or virus in culture. The note with it: read-out: Fungicidal activity IC50, P. infestans.

Bounds are passed on as bounds.

As for `Cc1ccc(-c2csc(-c3ccc(F)cc3F)c2C(O)c2cccnc2)s1` (stereo not shown) [Compound 14, 2-(2,4-Difluorophenyl)-4-(5-methyl-2-thienyl)-3-[(3-pyridyl)hydroxymethyl]-thiophene], in assay [1], the “Fungicidal activity IC50, B. cinerea” value is listed as “B (d)”. Besides, the IC50 in assay [2] is below 100 nM; in assay [4], below 100 nM; in assay [5], above 100000 nM. Besides, the “Fungicidal activity IC50, S. nodorum” value in assay [3] is reported as “A (b)”.

For `OC(c1cccnc1)c1c(-c2cccs2)csc1-c1ccc(Cl)cc1` (stereo not shown) [Compound 12, 2-(4-Chlorophenyl)-3-[(3-pyridyl)hydroxymethyl]-4-(2-thienyl)thiophene], the “Fungicidal activity IC50, B. cinerea” value in assay [1] is listed as “A (d)”. The half-inhibitory concentration (IC50) in assay [2] was below 100 nM; in assay [4], below 100 nM; in assay [5], above 100000 nM. Moreover, the “Fungicidal activity IC50, S. nodorum” value in assay [3] is “A (d)”.

On to `OC(c1cccnc1)c1c(-c2ccc(Cl)cc2)csc1-c1cccs1` (stereo not shown) [Compound 9, 4-(4-Chlorophenyl)-3-[(3-pyridyl)hydroxymethyl]-2-(2-thienyl)thiophene], for which the “Fungicidal activity IC50, B. cinerea” value in assay [1] is on record as “B (d)”. Further, the figures for the concentration for half-maximal inhibition (IC50) in assay [2] and in assay [5] were below 100 nM and above 100000 nM, respectively. For the same compound, in assay [3], the “Fungicidal activity IC50, S. nodorum” value is listed as “A (d)”. Besides, in assay [4], the “Fungicidal activity IC50, S. tritici” value was “A (c)”.

Regarding `OC(c1cccnc1)c1c(-c2ccc(F)cc2F)csc1-c1ccc(Cl)cc1` (stereo not shown) [Compound 6, 2-(4-Chlorophenyl)-4-(2,4-difluorophenyl)-3-[(3-pyridyl)hydroxymethyl]-thiophene], the “Fungicidal activity IC50, B. cinerea” value in assay [1] was “B (d)”. For the same compound, the figures for the IC50 in assay [2] and in assay [5] were below 100 nM and above 100000 nM, respectively. Moreover, the “Fungicidal activity IC50, S. nodorum” value in assay [3] is recorded as “B (c)”. Besides, in assay [4], the “Fungicidal activity IC50, S. tritici” value is listed as “A (b)”.

As to `OC(c1cccnc1)c1c(-c2ccc(Cl)cc2)csc1-c1ccc(Cl)cc1` (stereo not shown) [Compound 8, 2,4-Bis-(4-chlorophenyl)-3-[(3-pyridyl)hydroxymethyl]-thiophene], the “Fungicidal activity IC50, S. nodorum” value in assay [3] is listed as “B (d)”. Besides, in assay [4], the “Fungicidal activity IC50, S. tritici” value is listed as “A (d)”. In assay [5], the IC50 is above 100000 nM.

Take `OC(c1cccnc1)c1c(-c2ccc(Cl)cc2)csc1-c1ccc(Cl)s1` (stereo not shown) [Compound 4, 4-(4-Chlorophenyl)-2-(5-chloro-2-thienyl)-3-[(3-pyridyl)hydroxymethyl]-thiophene]: the “Fungicidal activity IC50, B. cinerea” value in assay [1] is listed as “B (c)”. For the same compound, the 50% inhibitory concentration (IC50) in assay [2] was below 100 nM; in assay [3] (Parastagonospora nodorum, read-out: Fungicidal activity IC50, S. nodorum), 110 to 1000 nM; in assay [5] it was above 100000 nM. The “Fungicidal activity IC50, S. tritici” value in assay [4] is “A (d)”.

One may read the IC50 as the point on the concentration scale where inhibition reaches its midpoint.

These data come from patent US20070244162A1 (priority 2005, published 2007).
